Test results from article PMC13252604, “First Generation Proteolysis Targeting Chimeras (PROTACs) for the Treatment of Progeria” (Advanced Science, 2026).

System: HGADFN167 Lmna^G608G/G608G fibroblasts
Experiment: Senescence-associated β-galactosidase activity in human progeroid cells
Format: cell-based
Conditions: HGADFN167, 5 µM, 20 days
Excerpt: FIGURE 6 (A) Representative cropped immunoblots and progerin quantification in human Lmna^G608G/G608G fibroblasts. MW, molecular weight (in kDa) markers. […] (B) PROTAC 2 increases cell proliferation (upper panels) and decreases the number of misshapen nuclei (lower panels). White arrows highlight selected misshapen nuclei. (C) PROTAC 2 decreases senescence‐associated β‐galactosidase (SA‐βgal) activity, interleukin (IL) 6, p16 and p21 senescent markers. Bar graphs show mean±sem of 2 (SA‐βgal and p21) or 3 (IL‐6 and p16) independent experiments performed in triplicate. (D) PROTAC 2 decreases phosphorylated histone 2AX (pH2AX) and increases trimethylated histone 3 (H3K9Me3) levels. (E) PROTAC 2 increases the oxygen consumption rate (OCR), ATP production and the number of healthy mitochondria in human progeroid cells. […] Data were analysed using one‐way ANOVA followed by Dunnett's post–hoc test vs vehicle (panel A) or vs G608G cells (panels B‐E). ^*, p < 0.05; ^**, p < 0.01; ^***, p < 0.001; ^****, p < 0.0001. […]
compound exposure. […] Samples were analysed by electrophoresis in polyacrylamide gels (All Kd SDS-PAGE, BioRad) and the proteins transferred to nitrocellulose membranes (GE Healthcare, Amersham). […]
GAPDH (Cell Signaling, 2118S, 1:5000) and anti-actin (Santa Cruz Biotechnology, sc-376248, 1:500) as antibodies for loading control. […] The bands were quantified by densitometry using the […]

`CC1(C)Oc2cc3oc(=O)ccc3cc2C[C@@H]1OC(=O)CCCCCNc1cccc2c1C(=O)N(C1CCC(=O)NC1=O)C2=O` (stereo partly shown) [compound 2] was tested, and the “SA‐βgal senescent marker” value was “significantly reduced”.
